Columns and labels:
[1] = system: scopolamine-induced memory deficit; assay: Dark Avoidance Assay (scopolamine induced memory deficit reversal); type: in vivo, mice; conditions: Mus musculus, sc; mice, 0.31 mg/kg s.c., 24 h; read-out: % of Animals with Scopolamine Induced Memory Deficit Reversal
Method: In this assay mice are tested for their ability to remember an unpleasant stimulus for a period of 24 hours. A mouse is placed in a chamber that contains a dark compartment; a strong incandescent light drives it to the dark compartment, where an electric shock is administered through metal plates on the floor. The animal is removed from the testing apparatus and tested again, 24 hours later, for the ability to remember the electric shock.
If scopolamine, an anticholinergic that is known to cause memory impairment, is administered before an animal's initial exposure to the test chamber, the animal re-enters the dark compartment shortly after being placed in the test chamber 24 hours later. This effect of scopolamine is blocked by an active test compound, resulting in a greater interval before re-entry into the dark compartment.
The results for an active compound are expressed as the percent of a group of animals in which the effect of scopolamine is blocked, as manifested by an increased interval between being placed in the test chamber and re-entering the dark compartment.

[2] = molecular target: T1, acetylcholinesterase (Brain AChE) (Rattus norvegicus, UniProt P37136); conditions: background statement; brain vs serum AChE; cited from earlier work
T1 construct: corpora striata dissected free, weighed and homogenized in 19 volumes; from tissue; host or cells: corpora striata of male Wistar rats, crude homogenate in phosphate buffer
T1 sequence (P37136 32-614): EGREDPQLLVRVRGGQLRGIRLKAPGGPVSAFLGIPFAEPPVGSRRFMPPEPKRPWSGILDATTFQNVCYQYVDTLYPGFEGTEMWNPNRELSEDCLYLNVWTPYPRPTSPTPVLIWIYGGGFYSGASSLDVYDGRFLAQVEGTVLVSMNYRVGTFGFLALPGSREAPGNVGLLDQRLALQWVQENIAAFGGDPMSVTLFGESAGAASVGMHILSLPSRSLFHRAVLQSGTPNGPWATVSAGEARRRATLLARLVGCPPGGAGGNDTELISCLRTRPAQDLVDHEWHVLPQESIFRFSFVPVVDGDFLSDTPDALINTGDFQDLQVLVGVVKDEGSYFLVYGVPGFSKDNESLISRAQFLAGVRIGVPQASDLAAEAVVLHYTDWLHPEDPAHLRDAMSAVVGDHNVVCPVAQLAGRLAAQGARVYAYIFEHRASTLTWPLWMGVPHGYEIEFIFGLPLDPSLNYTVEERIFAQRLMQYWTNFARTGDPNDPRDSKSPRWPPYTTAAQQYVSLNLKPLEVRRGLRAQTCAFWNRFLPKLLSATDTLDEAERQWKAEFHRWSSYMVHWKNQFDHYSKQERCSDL

norepinephrine uptake = type: biochemical; conditions: rat brain synaptosomes, 50 nM 3H-NE, 37° C., 5 min; read-out: Reuptake Inhibition of neurotransmitters, Norepinephrine
Acute toxicity (LD50) = type: in vivo; conditions: in vivo, ip, death within 24 hours
Method: LD50 is determined by the dose (mg/kg) at which 50% of the test animals die within 24 hours. In many cases this dose is an approximation.

Q: With CNC(=O)Oc1ccc2c(c1)[C@]1(C)CCN(C)[C@@H]1N2C [Physostigmine, (3aS-cis)-1,2,3,3a,8,8a-hexahydro-1,3a,8-trimethylpyrrolo[2,3-b]indol-5-ol, methyl carbamate ester, reference compound] as the compound, how does the responders at 0.31 mg/kg [1] read?
A: Its responders at 0.31 mg/kg is 20%.

Q: And the “specificity of AChE inhibition” value [2]?
A: The value was “an unspecific AChE inhibitor”.

Q: What about the IC50 (norepinephrine uptake) of the same compound?
A: Its IC50 is over 20 µM.

Q: What about the LD50 at 24 h (Acute toxicity (LD50)) of the same compound?
A: Its LD50 at 24 h is about 3 mg/kg.

Source: patent US5187165A, “Memory enhancing and analgesic 1,2,3a,8,8a-hexahydro-3a,8(and 1,3a,8)-di(and tri)methylpyrrolo[2,3-b]indoles” (priority 1988, dated 1993)
